For the test, the target named is T1, Tdp1 (Homo sapiens, UniProt Q9NUW8).
T1 construct: made in house; host or cells: Escherichia coli
The test is described as follows: Real-time detection of Tdp1 activity (5'-FAM/3'-BHQ1 oligonucleotide biosensor). Format: biochemical. The settings on record: 1.5 nM Tdp1, 50 nM oligonucleotide substrate, 26 °C. An excerpt:
We first studied the inhibition potency of our compounds to Tdp1 by using a real-time oligonucleotide biosensor assay that we have previously developed. The assay was based on the ability of Tdp1 to remove the fluorescence quencher from the 3’-end of DNA. The substrate is a 16-mer single-stranded oligonucleotide containing both a 5’-FAM fluorophore and a 3’-BHQ1 quencher.
A fluorophore quencher-coupled DNA-biosensor for real-time measurement of Tdp1 cleavage activity was recently designed in our laboratory. The biosensor is a 16-mer single-stranded oligonucleotide containing both a 5’-FAM fluorophore donor and a quenching 3’-BHQ1 moiety.
Recombinant protein Tdp1 was expressed in EsCherichia coli (pET 16B plasmid containing Tdp1 cDNA provided by Dr. K.W. Caldecott, University of Sussex, United Kingdom) and isolated as described. The reaction mixture in a final volume 200 μL contained Tdp1 reaction buffer (50 mM Tris-HCl, 50 mM NaCl, 7 mM β-mercaptoethanol), 50 nM oligonucleotide substrate, and varied concentrations of potential inhibitor. Purified Tdp1 was added in a final concentration of 1.5 nM.
The reaction mixtures were incubated at a constant temperature of 26 °C in a POLARstar OPTIMA fluorimeter, BMG LABTECH, GmbH, to measure fluorescence intensity every minute (Ex485/Em520 nm). Tdp1 inhibition was calculated by comparing the rate of increase in fluorescence of the biosensor in the presence of the compound to that of DMSO (1.5%) control wells. The measurements were carried out in at least two independent experiments. IC50 values were determined using a six-point concentration response curve. The data were imported into the MARS Data Analysis 2.0 program (BMG LABTECH) and the slope during the linear phase (data from 0 to 7 min) was calculated.

T1 sequence (Q9NUW8 whole entry): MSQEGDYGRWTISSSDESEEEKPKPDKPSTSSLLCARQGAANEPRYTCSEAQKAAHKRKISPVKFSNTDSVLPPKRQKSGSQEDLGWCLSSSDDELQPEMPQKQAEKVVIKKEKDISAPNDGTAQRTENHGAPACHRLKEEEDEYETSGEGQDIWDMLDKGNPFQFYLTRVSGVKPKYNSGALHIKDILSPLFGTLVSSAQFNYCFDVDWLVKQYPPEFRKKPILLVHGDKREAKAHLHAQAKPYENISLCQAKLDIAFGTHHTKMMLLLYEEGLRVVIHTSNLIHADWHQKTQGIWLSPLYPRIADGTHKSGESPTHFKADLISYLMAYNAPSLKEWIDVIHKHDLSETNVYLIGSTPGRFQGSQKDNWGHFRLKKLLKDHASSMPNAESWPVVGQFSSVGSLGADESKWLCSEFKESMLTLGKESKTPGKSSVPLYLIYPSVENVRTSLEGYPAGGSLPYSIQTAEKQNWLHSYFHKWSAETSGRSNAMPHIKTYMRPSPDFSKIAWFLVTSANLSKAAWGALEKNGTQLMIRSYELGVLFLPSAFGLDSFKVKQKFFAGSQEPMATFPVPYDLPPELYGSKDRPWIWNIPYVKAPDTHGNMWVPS

As a reminder, the IC50 is the concentration that inhibits the measured activity by half. Molecule `CC(=O)C1=C(O)C=C2Oc3c(-c4csc(N/N=C/c5c[nH]c6ccccc56)n4)c(O)c(C)c(O)c3[C@]2(C)C1=O` [(−)-16p, (2S)-4-Acetyl-5,11,13-trihydroxy-2,12-dimethyl-10-{2-[(E)-2-[(1H-indole-3-yl)methylidene] hydrazin-1-yl]-1,3-thiazol-4-yl}-8-oxatricyclo[7.4.0.0^2,7]trideca-1(9),4,6,10,12-pentaen-3-one] gave an IC50 of 57 ± 1 nM.
Turning to `COc1ccc(/C=N/Nc2nc(-c3c(O)c(C)c(O)c4c3OC3=CC(O)=C(C(C)=O)C(=O)[C@]34C)cs2)cc1COc1cccc(F)c1` [(−)-17b, (2S)-4-Acetyl-10-{2-[(E)-2-({3-[(3-fluorophenoxy)methyl]-4-methoxyphenyl}methylidene)hydrazin-1-yl]-1,3-thiazol-4-yl}-5,11,13-trihydroxy-2,12-dimethyl-8-oxatricyclo[7.4.0.0^2,7]trideca-1(9),4,6,10,12-pentaen-3-one], the IC50 stood at 78 ± 3 nM.
As for “(2R)-4-Acetyl-5,11,13-trihydroxy-2,12-dimethyl-10-{2-[(E)-2-[(1H-2-methyl-indole-3-yl) methylidene]hydrazin-1-yl]-1,3-thiazol-4-yl}-8-oxatricyclo[7.4.0.0^2,7]trideca-1(9),4,6,10,12-pentaen-3-one [(+)-16q]”, the IC50 worked out at 21 ± 6 nM.
Turning to `CC(=O)C1=C(O)C=C2Oc3c(-c4csc(N/N=C/c5ccc(C)s5)n4)c(O)c(C)c(O)c3[C@]2(C)C1=O` [(−)-16e, (2S)-4-Acetyl-5,11,13-trihydroxy-2,12-dimethyl-10-{2-[(E)-2-[(5-methylthiophen-2-yl)methylidene]hydrazin-1-yl]-1,3-thiazol-4-yl}-8-oxatricyclo[7.4.0.0^2,7]trideca-1(9),4,6,10,12-pentaen-3-one], the IC50 was determined as 54 ± 25 nM.
To `CC(=O)C1=C(O)C=C2Oc3c(-c4csc(N/N=C/c5cccn5C)n4)c(O)c(C)c(O)c3[C@]2(C)C1=O` [(−)-16n, (2S)-4-Acetyl-5,11,13-trihydroxy-2,12-dimethyl-10-{2-[(E)-2-[(1-methyl-pyrrol-2-yl)methylidene]hydrazin-1-yl]-1,3-thiazol-4-yl}-8-oxatricyclo[7.4.0.0^2,7]trideca-1(9),4,6,10,12-pentaen-3-one] belongs 29 ± 9 nM; to `CC(=O)C1=C(O)C=C2Oc3c(-c4csc(N/N=C/c5ccoc5)n4)c(O)c(C)c(O)c3[C@@]2(C)C1=O` [(+)-16l, (2R)-4-Acetyl-5,11,13-trihydroxy-2,12-dimethyl-10-{2-[(E)-2-[(furan-3-yl)methylidene] hydrazin-1-yl]-1,3-thiazol-4-yl}-8-oxatricyclo[7.4.0.0^2,7]trideca-1(9),4,6,10,12-pentaen-3-one], 77 ± 6 nM; to `CC(=O)C1=C(O)C=C2Oc3c(-c4csc(N/N=C/c5ccccn5)n4)c(O)c(C)c(O)c3[C@]2(C)C1=O` [(−)-16b, 2-[(1E)-(2-{4-[(1S)-12-Acetyl-3,5,11-trihydroxy-1,4-dimethyl-13-oxo-8-oxatricyclo [7.4.0.0^2,7]trideca-2(7),3,5,9,11-pentaen-6-yl]-1,3-thiazol-2-yl}hydrazin-1-ylidene)methyl]pyridin-1-ium bromide], 1480 ± 265 nM.
`CC(=O)C1=C(O)C=C2Oc3c(-c4csc(N/N=C/c5ccncc5)n4)c(O)c(C)c(O)c3[C@]2(C)C1=O` [(−)-16a, 4-[(1E)-(2-{4-[(1S)-12-Acetyl-3,5,11-trihydroxy-1,4-dimethyl-13-oxo-8-oxatricyclo[7.4.0.0^2,7]trideca-2(7),3,5,9,11-pentaen-6-yl]-1,3-thiazol-2-yl}hydrazin-1-ylidene)methyl]pyridin-1-ium bromide] displayed an IC50 of 139 ± 38 nM.
To `CC(=O)C1=C(O)C=C2Oc3c(-c4csc(N/N=C/c5ccc(-c6cccc(Cl)c6)o5)n4)c(O)c(C)c(O)c3[C@]2(C)C1=O` [(−)-16r, (2S)-4-Acetyl-10-{2-[(E)-2-{[5-(3-chlorophenyl)furan-2-yl]methylidene}hydrazin-1-yl]-1,3-thiazol-4-yl}-5,11,13-trihydroxy-2,12-dimethyl-8-oxatricyclo[7.4.0.0^2,7]trideca-1(9),4,6,10,12-pentaen-3-one] belongs 53 ± 3 nM.

These data come from publication PMC6832265 (Molecules, 2019).
